Legend:
[1] = biological target: T1, Caspase-3 (Homo sapiens, UniProt P42574); assay: Inhibition of human recombinant caspase 3
T1 sequence (P42574 whole entry): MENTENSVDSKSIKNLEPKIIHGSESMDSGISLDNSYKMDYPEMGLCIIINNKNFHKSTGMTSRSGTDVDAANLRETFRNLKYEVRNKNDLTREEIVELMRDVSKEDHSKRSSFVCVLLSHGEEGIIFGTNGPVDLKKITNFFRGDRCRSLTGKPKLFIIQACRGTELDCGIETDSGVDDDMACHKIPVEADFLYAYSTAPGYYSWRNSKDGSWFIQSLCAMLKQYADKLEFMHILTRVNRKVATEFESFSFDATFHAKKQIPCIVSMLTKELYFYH

[2] = biological target: T2, Caspase-7 (Homo sapiens, UniProt P55210); assay: Inhibition of human recombinant caspase 7
T2 sequence (P55210 whole entry): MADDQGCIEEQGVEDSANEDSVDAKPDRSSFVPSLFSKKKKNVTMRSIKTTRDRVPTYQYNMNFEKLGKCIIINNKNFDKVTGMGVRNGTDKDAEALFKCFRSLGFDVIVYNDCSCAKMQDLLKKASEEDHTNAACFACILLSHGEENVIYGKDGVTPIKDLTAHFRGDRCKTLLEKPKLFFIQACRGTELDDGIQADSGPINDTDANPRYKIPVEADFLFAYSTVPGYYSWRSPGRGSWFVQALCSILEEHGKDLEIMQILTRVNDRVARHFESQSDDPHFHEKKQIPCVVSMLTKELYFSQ

Row | Structure (SMILES) | IC50 [1] [nM] | IC50 [2] [nM]
1 | CCN1C(=O)C(=O)c2cc(S(=O)(=O)N3CCC[C@H]3COC)ccc21 | 183 | 319
2 | CCCN1C(=O)C(F)(F)c2cc(S(=O)(=O)N3CCC[C@H]3COC)ccc21 | > 100000 | > 100000
3 | COC[C@@H]1CCCN1S(=O)(=O)c1ccc2c(c1)C(=O)C(=O)N2CCCOCCCOS(C)(=O)=O | > 100000 | > 100000
4 | COC[C@@H]1CCCN1S(=O)(=O)c1ccc2c(c1)C(=O)C(=O)N2CCCOCCCO | – | 113000
5 | COC[C@@H]1CCCN1S(=O)(=O)c1ccc2c(c1)C(=O)C(=O)N2 | – | 170
6 | COC[C@@H]1CCCN1S(=O)(=O)c1ccc2c(c1)C(=O)C(=O)N2CCCOCCCF | > 100000 | > 100000

Compounds with a lower IC50 [2], results first:

Row | IC50 [1] [nM] | IC50 [2] [nM] | Structure (SMILES)
7 | 5.3 | 58 | CCCN1C(=O)C(=O)c2cc(S(=O)(=O)N3CCC[C@H]3COC)ccc21
8 | 41 | 28 | COC[C@@H]1CCCN1S(=O)(=O)c1ccc2c(c1)C(=O)C(=O)N2CCCCF
9 | 29 | 8.1 | CCCCN1C(=O)C(=O)c2cc(S(=O)(=O)N3CCC[C@H]3COC)ccc21

From ChEMBL document CHEMBL1153400, “Fluorinated isatin derivatives. Part 1: synthesis of new N-substituted (S)-5-[1-(2-methoxymethylpyrrolidinyl)sulfonyl]isatins as potent caspase-3 and -7 inhibitors” (Bioorg Med Chem, 2009)
